Consider 9 compounds from PubChem BioAssay (NCI).

SMILES strings stand for the structures.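 Each compound was tested at five concentrations against cells in 96-well plates for 48 hours. At the GI50, growth is halved. TGI: concentration producing complete growth inhibition.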

Holding throughout (experiment): DTP human tumour cell line panel, 48 h
Test [1] deals with SR leukemia.
The test system of test [2] is SW-620 colon.
Test [3] relates to HCT-15 colon.
In test [4] the test system is SNB-75 CNS.
In test [5] the test system is MDA-MB-231 breast.
Test [6] concerns SNB-19 CNS.
Test [7] concerns OVCAR-8 ovarian.
The test system of test [8] is OVCAR-5 ovarian.
In test [9] the test system is OVCAR-3 ovarian.
Test [10] concerns NCI-H226 lung.

Broadly, the GI50 is the concentration giving 50% growth inhibition. The TGI is the concentration giving total growth inhibition. Higher therefore signals less potent growth arrest. Turning to `CC(N)(Cc1c[nH]c2cccc(F)c12)C(=O)O` (stereo not drawn), the GI50 was greater than 1000 µM in [1]; greater than 1000 µM in test [2]; greater than 1000 µM in [3]; 405 µM in test [4]; greater than 1000 µM in test [5]; greater than 1000 µM in test [6]. Besides, the GI50 in [7], in test [8] and in test [9] was greater than 1000 µM in each case. Also, the TGI in test [1], in test [2], in test [3], in test [4], in [5] and in test [6] was greater than 1000 µM in each case. Also, the total growth inhibition concentration (TGI) in test [7], in [8] and in test [9] was greater than 1000 µM throughout.
Take `COC12C=C/C(=C(/C(=O)OCc3ccccn3)C(=O)CCCCCCCCC3(OC)C=C/C(=C(/C(=O)OCc4ccccn4)C(=O)CCCCCCCC1)O3)O2`: the GI50 in [1] was 0.364 µM; in [2] it was 0.385 µM; in [4], 0.827 µM; in test [5] it was 0.485 µM; in test [6] it was 1.43 µM; in [7] it was 0.406 µM. Also, the GI50 in test [8] is 0.538 µM; in test [10] it was 0.25 µM; in [9] it was 0.326 µM. In addition, the total growth inhibition concentration (TGI) in [1] is greater than 100 µM; in test [2], 2.09 µM; in test [4] it was 2.37 µM; in [5] it was greater than 100 µM; in [6], greater than 100 µM; in test [7], greater than 100 µM. Moreover, the results for the total growth inhibition concentration (TGI) in test [8], in test [10] and in test [9] were 5.62 µM, 0.648 µM and 1.1 µM, respectively.
Consider `COc1ccc2c(c1)c(-c1nc(-c3c[nH]c4ccncc34)cs1)cn2C`, for which the GI50 in test [2] was 1.75 µM; in test [3] it was 1.25 µM; in test [4], 1.52 µM; in test [5] it was 1.45 µM; in test [6], 1.85 µM; in test [7] it was 1.99 µM. For the same compound, the GI50 in test [8] was 1.64 µM; in [10], 1.88 µM; in test [9], 1.88 µM. Further, the concentration for total growth inhibition (TGI) in [2] was found to be 3.27 µM; in test [3], 2.58 µM; in [4], 2.91 µM; in [5], 2.95 µM; in test [6], 3.36 µM; in test [7] it was 3.82 µM. The values for the TGI in [8], in [10] and in test [9] were 3.06 µM, 3.9 µM and 3.34 µM, respectively.
For the compound `CNC(=O)c1c(NC(=O)c2ccc(C(C)(C)C)cc2)sc2c(CN(C)C)c(O)ccc12`, the GI50 in [1] is 0.99 µM; in test [2], 1.74 µM; in test [3], 0.459 µM; in [5] it was 1.81 µM; in test [8] it was 1.85 µM. For the same compound, the TGI in test [1] was 3.5 µM; in [2] it was 3.38 µM; in test [3] it was 1.82 µM; in [5] it was 3.67 µM; in [8], 3.68 µM.
In the case of `CC1=C(SCCC(=O)OC(C[Se]C2=C(C)C(=O)c3ccccc3C2=O)C(=O)NCCCCCC(=O)OCc2ccccc2)C(=O)c2ccccc2C1=O` (stereo not drawn), the GI50 is 2.43 µM in test [2]; 6.53 µM in test [3]; 11.5 µM in [4]; 6.81 µM in test [5]; 3.82 µM in [6]; 4.16 µM in test [7]. In addition, the GI50 in test [8] is 5.05 µM; in [10], 19.5 µM; in test [9] it was 5.01 µM. Further, the TGI in test [2] was determined as 9.34 µM; in test [3], 21.3 µM; in test [4], 23.8 µM; in test [5], 22 µM; in [6], 14 µM; in [7], 15 µM. In addition, the TGI in test [8] turned out to be 18.7 µM; in test [10] it was 51.3 µM; in [9], 18.2 µM.
For `CCOC(=O)Oc1cc2c(c(OC)c1OC)-c1ccc(OC)c(=O)cc1C(NC(C)=O)CC2` (stereo not drawn), the TGI in test [2] was greater than 100 µM; in test [3], greater than 100 µM; in [4], greater than 16.9 µM; in [5], greater than 90.2 µM; in test [6], 92.4 µM; in test [7], 19.7 µM. The total growth inhibition concentration (TGI) was greater than 100 µM in test [8], 0.787 µM in test [10] and 0.135 µM in [9].
Consider `Cc1csc2[n+]1-c1ccccc1N(C(=O)Nc1ccccc1)C(C)C2` (stereo not drawn), for which the GI50 in [2] was 41 µM; in test [3] it was greater than 100 µM; in test [5], 18.6 µM; in test [6], greater than 100 µM; in test [7], greater than 100 µM; in test [8], 28.6 µM. The GI50 in test [10] and in test [9] was greater than 100 µM in each case. Besides, the TGI is greater than 100 µM in test [2]; greater than 100 µM in [3]; 45.3 µM in [5]; greater than 100 µM in test [6]; greater than 100 µM in [7]; 99.5 µM in test [8]. For the same compound, the TGI in test [10] and in test [9] was greater than 100 µM each time.
For `Cc1ccc(/C=N/Nc2nc(Nc3ccccc3)nc(-n3nc(C)cc3C)n2)cc1`, the GI50 in test [1] is 3.31 µM; in [2] it was 5.75 µM; in [3], 2.63 µM; in test [4], 10.9 µM; in test [5], 6.44 µM; in test [7], 3.33 µM. Besides, the GI50 in [8] was 15.4 µM; in [10], 4.88 µM; in test [9], 3.2 µM. Further, the total growth inhibition concentration (TGI) in [1] was greater than 100 µM; in test [2], greater than 100 µM; in test [3], 46.4 µM; in test [4] it was greater than 100 µM; in [5], greater than 100 µM; in [7], 11.5 µM. Besides, the figures for the TGI in test [8], in test [10] and in [9] were greater than 100 µM, 37.7 µM and 43.6 µM, respectively.
As for `CCOC(=O)c1cc2c(cc1Cl)SC(=Nc1ccccc1)N(S(=O)(=O)c1ccc(Cl)cc1)S2(=O)=O`, the GI50 is 14.6 µM in [2]; 6.52 µM in test [3]; 38.2 µM in test [4]; 13.2 µM in [5]; 20.2 µM in test [6]; 22.1 µM in [7]. In addition, the GI50 in test [8] is 19.4 µM; in [10], 6.03 µM; in test [9] it was 12.2 µM. Also, the concentration for total growth inhibition (TGI) in test [2] was 32.6 µM; in test [3], 21.9 µM; in [4], greater than 100 µM; in test [5], 33.7 µM; in test [6] it was greater than 100 µM; in test [7], 59.6 µM. For the same compound, the TGI is 36.8 µM in test [8], 28.2 µM in test [10] and 26.3 µM in test [9].
